Assay results as given in patent publication US8912144B2, “Method for treating stroke via administration of NEP1-40 and inosine” (Children's Medical Center Corporation, priority 2003, dated 2014).

System: corticospinal neurons (CSNs/CSMNs)
Experiment: Laser-capture microdissection and Illumina microarray gene expression in corticospinal neurons contralateral to stroke
Format: in vivo, rat
Method: In a separate group of animals (n=20), layer V pyramidal cells of the sensorimotor cortex were retrogradely labeled by injecting Alexa-Fluor-488-conjugated cholera toxin B subunit (CTB; 300 U/μl in sterile saline) into the cervical spinal cord. For this, animals were anesthetized with a combination of ketamine and Domitor (medetomidine) and a laminectomy was performed at the cervical level of the spinal cord (C2-C4). CTB was stereotaxically delivered into four sites lateral to the corticospinal tract. Injections (1.3 μl) were spaced 1 mm apart on the rostro-caudal axis, and were made 0.5 mm to the left and right of the midline. After allowing two weeks for transport of the tracer, we performed either sham surgery with no treatment (n=6) or stroke surgery combined with saline (n=3) or inosine (n=4) treatment as described above. Seven days later, animals were decapitated under transient gas anesthesia, brains were removed and rinsed in cold RPMI medium, and a tissue block containing the sensorimotor cortex was dissected and placed in OCT Tissue Tek Medium (Sakura Finetek USA Inc., CA) on dry ice within five minutes of death. Ten μm sections were cut onto precleaned Gold Seal RITE-ON glass slides (Gold Seal Prod-ucts, Portsmouth, N.H.), placed on dry ice, and rapidly stored at −80° C.
Slide-mounted sections were thawed and dehydrated in RNAse-free ethanol gradients and xylene. Retro-gradely labeled, fluorescent cortical pyramidal cells in the undamaged hemisphere were individually captured using the Arcturus VERITAS system. ≧500 cells were collected from each animal and stored in Arcturus extraction buffer at −80° C. Total RNA was extracted from cells using the Micro-to-Midi TotalRNA Purification System (Invitrogen, Carlsbad Calif.) and double-amplified using the TargetAmp 2-Round Aminoallyl-aRNA Amplification kit 1.0 (Epicentre, Madison, Wis.). Amplified RNA was checked for average fragment length using the Agilent RNA 6000 Nano LabChip kit (Agilent Technologies, Santa Clara, Calif.) and then biotinylated and hybridized (1 μg) on Illumina RatRef-12 Expression BeadChip arrays (Illumina, San Diego Calif.), querying the expression of >22,000 RefSeq-curated rat transcripts. Results were obtained from a total of 15 samples representing 6 untreated controls, 4 animals with stroke treated with saline and 5 animals with stroke treated with inosine. Slides were processed and scanned with Illumina BeadStation platform according to the manufacturer protocol.
Raw data was analyzed using Bioconductor packages (www.bioconductor.org, (Gentleman et al., 2004)). Low level quality-control analysis was performed using inter-array Pearson correlation and clustering based on variance. Two arrays (1 saline and 1 inosine-treated) were outliers and were excluded from the analysis. Data was normalized using quantile normalization, and analysis of differential expression was performed using a linear model fitting (LIMMA package, (Smyth, 2005). Differentially expressed genes were classified according to gene ontology using Bioconductor packages and online tools (DAVID, http://david.abcc.ncifcrf.gov/). Pathway analysis was carried out using Ingenuity Pathway Analysis (Ingenuity Systems, www.ingenuity.com).

SMILES: OC[C@H]1O[C@@H](n2cnc3c(O)ncnc32)[C@H](O)[C@@H]1O [inosine]
- Fold-Induction Stroke, ino vs. cntrl, Hbld2 (ILMN_57967): 0.54
- Signal Intensity, Hbld2 (ILMN_57967, inosine after stroke): 1095
- Fold-Induction Stroke, ino vs. cntrl, LOC298490 (ILMN_58032): 0.62
- Signal Intensity, LOC298490 (ILMN_58032, inosine after stroke): 1407
- Fold-induction CSMNs: Lcp1 (ILMN_58058, over and above inosine's effect of decreasing stroke-induced changes): 2.68 fold
- Fold-Induction Stroke, ino vs. cntrl, LOC290549 (ILMN_58092): 0.54
- Signal Intensity, LOC290549 (ILMN_58092, inosine after stroke): 1870
- Fold-Induction Stroke, ino vs. cntrl, Rhob (ILMN_58180): 0.52
- Signal Intensity, Rhob (ILMN_58180, inosine after stroke): 276
- Fold-Induction Stroke, ino vs. cntrl, Gdap2 (ILMN_58290): 0.58
- Signal Intensity, Gdap2 (ILMN_58290, inosine after stroke): 319
- Fold-Induction, complement cascade gene C1qa (ILMN_58496, LCM-captured CSMNs contralateral a stroke): 2.03 fold
- Fold-induction CSMNs: C1qa (ILMN_58496, over and above inosine's effect of decreasing stroke-induced changes): 1.84 fold
- Fold-Induction Stroke, ino vs. cntrl, Rab11a (ILMN_58550): 0.56
- Signal Intensity, Rab11a (ILMN_58550, inosine after stroke): 1039
- Fold-Induction Stroke, ino vs. cntrl, LOC499088 (ILMN_58730): 0.59
- Signal Intensity, LOC499088 (ILMN_58730, inosine after stroke): 1089
- Fold-Induction Stroke, ino vs. cntrl, Dars (ILMN_58816): 0.76
- Signal Intensity, Dars (ILMN_58816, inosine after stroke): 349
- Fold-Induction, complement cascade gene Adn ((P) adipsin) (ILMN_58846, LCM-captured CSMNs contralateral a stroke): 5.81 fold
- Fold-Induction Stroke, ino vs. cntrl, Emb (ILMN_58897): 0.77
- Signal Intensity, Emb (ILMN_58897, inosine after stroke): 425
- Fold-Induction Stroke, ino vs. cntrl, Kifap3 (ILMN_59040): 0.64
- Signal Intensity, Kifap3 (ILMN_59040, inosine after stroke): 270
- Fold-induction CSMNs: Npc2 (ILMN_59161, over and above inosine's effect of decreasing stroke-induced changes): 1.73 fold
- Fold-Induction Stroke, ino vs. cntrl, Plcb1 (ILMN_59359): 0.59
- Signal Intensity, Plcb1 (ILMN_59359, inosine after stroke): 512
- Fold-induction CSMNs: Emp3 (ILMN_59412, over and above inosine's effect of decreasing stroke-induced changes): 2.20 fold
- Fold-Induction Stroke, ino vs. cntrl, LOC291762 (ILMN_59483): 0.52
- Signal Intensity, LOC291762 (ILMN_59483, inosine after stroke): 673
- Fold-Induction Stroke, ino vs. cntrl, LOC315840 (ILMN_59546): 0.85
- Signal Intensity, LOC315840 (ILMN_59546, inosine after stroke): 3649
- Fold-Induction, complement cascade gene C4-2 (ILMN_59751, LCM-captured CSMNs contralateral a stroke): 2.15 fold
- Fold-induction CSMNs: Ppp1r14b (ILMN_59774, over and above inosine's effect of decreasing stroke-induced changes): 1.74 fold
- Fold-Induction Stroke, ino vs. cntrl, Bcas2 (ILMN_59789): 0.91
- Signal Intensity, Bcas2 (ILMN_59789, inosine after stroke): 1103
- Fold-Induction Stroke, ino vs. cntrl, D123 (ILMN_59956): 0.76
- Signal Intensity, D123 (ILMN_59956, inosine after stroke): 607
- Fold-Induction Stroke, ino vs. cntrl, LOC497728 (ILMN_59964): 0.56
- Signal Intensity, LOC497728 (ILMN_59964, inosine after stroke): 1366
- Fold-induction CSMNs: Cd68 (ILMN_60003, over and above inosine's effect of decreasing stroke-induced changes): 2.62 fold
- Fold-Induction Stroke, ino vs. cntrl, Tspan2 (ILMN_60033): 0.54
- Signal Intensity, Tspan2 (ILMN_60033, inosine after stroke): 1363
- Fold-induction CSMNs: Lgals3bp (ILMN_60037, over and above inosine's effect of decreasing stroke-induced changes): 2.60 fold
- Fold-Induction, complement cascade gene Serping1 (ILMN_60046, LCM-captured CSMNs contralateral a stroke): 2.20 fold
- Fold-induction CSMNs: Serping1 (ILMN_60046, over and above inosine's effect of decreasing stroke-induced changes): 2.93 fold
- Fold-Induction Stroke, ino vs. cntrl, Pgk1 (ILMN_60123): 0.65
- Signal Intensity, Pgk1 (ILMN_60123, inosine after stroke): 5869
- Fold-Induction Stroke, ino vs. cntrl, Ndufa8 (ILMN_60239): 0.57
- Signal Intensity, Ndufa8 (ILMN_60239, inosine after stroke): 572
- Fold-Induction Stroke, ino vs. cntrl, Kbtbd9 (ILMN_60252): 0.68
- Signal Intensity, Kbtbd9 (ILMN_60252, inosine after stroke): 1263
- Fold-Induction Stroke, ino vs. cntrl, LOC309016 (ILMN_60417): 0.68
- Signal Intensity, LOC309016 (ILMN_60417, inosine after stroke): 554
- Fold-Induction Stroke, ino vs. cntrl, Bckdhb (ILMN_60448): 0.61
- Signal Intensity, Bckdhb (ILMN_60448, inosine after stroke): 281
- Fold-Induction Stroke, ino vs. cntrl, Rbm18 (ILMN_60511): 0.62
- Signal Intensity, Rbm18 (ILMN_60511, inosine after stroke): 301
- Fold-Induction Stroke, ino vs. cntrl, LOC360618 (ILMN_60542): 0.69
- Signal Intensity, LOC360618 (ILMN_60542, inosine after stroke): 1021
- Fold-Induction Stroke, ino vs. cntrl, Mg87 (ILMN_60584): 0.80
- Signal Intensity, Mg87 (ILMN_60584, inosine after stroke): 1251
- Fold-Induction Stroke, ino vs. cntrl, Ndfip1 (ILMN_60653): 0.80
- Signal Intensity, Ndfip1 (ILMN_60653, inosine after stroke): 362
- Fold-induction CSMNs: Rhoc (ILMN_61063, over and above inosine's effect of decreasing stroke-induced changes): 2.02 fold
- Fold-Induction Stroke, ino vs. cntrl, Pja2 (ILMN_61213): 0.58
- Signal Intensity, Pja2 (ILMN_61213, inosine after stroke): 2360
- Fold-Induction Stroke, ino vs. cntrl, Khdrbs3 (ILMN_61216): 0.57
- Signal Intensity, Khdrbs3 (ILMN_61216, inosine after stroke): 2045
- Fold-Induction Stroke, ino vs. cntrl, Dlgap1 (ILMN_61367): 0.68
- Signal Intensity, Dlgap1 (ILMN_61367, inosine after stroke): 1249
- Fold-Induction, complement cascade gene C1qb (ILMN_61448, LCM-captured CSMNs contralateral a stroke): 1.84 fold
- Fold-Induction Stroke, ino vs. cntrl, LOC500629 (ILMN_61521): 0.59
